In PubChem BioAssay AID1648 (Sanford-Burnham Center for Chemical Genomics, 2009):
Calls of active or inactive are those of the source. No rule for the calls is given here.

These molecules were tested against Serine/threonine-protein kinase mTOR (Homo sapiens) (UniProt P42345) (assay: binders of mTOR FRB domain, biophysical, NMR (AID 1648)). Conditions: NMR binding to FRB domain, chemical shift.
Chain of Serine/threonine-protein kinase mTOR (Homo sapiens) (P42345 2015-2114): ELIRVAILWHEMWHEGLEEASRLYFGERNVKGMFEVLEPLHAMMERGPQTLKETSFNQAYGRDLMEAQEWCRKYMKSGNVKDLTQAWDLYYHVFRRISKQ

For `CC(C1OC(C)(C)C(O)C1O)[C@@H]1CC[C@]2(C)C3=CCC4C(C)(C)C(=O)CC[C@]4(C)C3CC[C@@]12C` (stereo partly specified), which Kd is on record?
The Kd was > 4 mM (inactive).

Which Kd does the source give for `O=c1ccn(Cc2ccccc2)c(=O)n1Cc1ccccc1` here?
The Kd was > 4 mM (inactive).

For `Nc1ccc(Cl)nn1`, which Kd is on record?
The Kd was > 4 mM (inactive).

For `O=C(O)c1cc2ccccc2[nH]1`, which Kd is on record?
Its Kd is > 4 mM (inactive).

How did the Kd turn out when `CCOc1cc(C)c(Cl)cc1S(=O)(=O)N(C)C` was run?
Its Kd is > 4 mM (inactive).

Which Kd does the source give for `CC1(C)Cc2nc3[nH]c(=S)[nH]c(=O)c3cc2CO1` here?
Its Kd is > 4 mM (inactive).

How did the Kd turn out when `Cc1ccc(C)c(C(=O)NCc2ccncc2)c1` was run?
Its Kd is > 4 mM (inactive).

Which Kd does the source give for `c1ccc(-c2nsc(N3CCNCC3)n2)cc1` here?
The Kd was > 4 mM (inactive).

Which Kd does the source give for `OCCNc1nc2ccc(Cl)cc2[nH]1` here?
The Kd was > 4 mM (inactive).

For `Cc1nc2ccc(NC(=O)N3CCSCC3)cc2s1`, which Kd is on record?
The Kd was > 4 mM (inactive).

`NC(=O)C12CC3CC(C1)C(=O)C(C3)C2` was tested. Which Kd did it give?
The Kd was > 4 mM (inactive).

Which Kd does the source give for `CC1=CC(C)C(C(=O)O)C(C(=O)N2CCN(C)CC2)C1` (stereo unspecified) here?
The Kd was > 4 mM (inactive).

Which Kd does the source give for `O=C1COc2ccccc2C(=O)N1` here?
The Kd was > 4 mM (inactive).

With `O=S(=O)(c1cccc2cccnc12)N1CCOCC1` as the molecule, how does the Kd read?
The Kd was > 4 mM (inactive).

For `CC(=O)Nc1ccc(NC(=O)c2ccncc2)cc1`, which Kd is on record?
Its Kd is > 4 mM (inactive).

For `Cc1[nH]c2ccccc2c1C(=O)CSc1ncn[nH]1`, which Kd is on record?
Its Kd is > 4 mM (inactive).

How did the Kd turn out when `O=C(O)CCc1ccc2c(c1)OCO2` was run?
The Kd was > 4 mM (inactive).

For `CCC(=O)NC(=S)Nc1ccc(C(N)=O)cc1`, which Kd is on record?
The Kd was > 4 mM (inactive).

Which Kd does the source give for `CC(=O)Nc1ccc(NC2SC(=O)NC2=O)cc1` (stereo unspecified) here?
Its Kd is > 4 mM (inactive).

Which Kd does the source give for `O=C1NC(=S)N/C1=C\c1cccc([N+](=O)[O-])c1` here?
The Kd was > 4 mM (inactive).

With `CCn1cnc2scc(-c3ccccc3)c2c1=O` as the molecule, how does the Kd read?
Its Kd is > 4 mM (inactive).

For `O=C(CSc1ncn[nH]1)c1ccc2c(c1)OCCO2`, which Kd is on record?
The Kd was > 4 mM (inactive).

`O=S1(=O)CCC(NC(=S)Nc2ccccn2)C1` (stereo unspecified) was tested. Which Kd did it give?
The Kd was > 4 mM (inactive).

Which Kd does the source give for `CCOC(=O)c1snnc1-c1ccccc1` here?
The Kd was > 4 mM (inactive).

With `CC(=O)N1N=C(N)SC1c1cccnc1` (stereo unspecified) as the molecule, how does the Kd read?
The Kd was > 4 mM (inactive).

For `Cn1nc(C(=O)N2CCCC2)c2ccccc2c1=O`, which Kd is on record?
Its Kd is > 4 mM (inactive).

For `NC(=O)NC1C=CS(=O)(=O)C1` (stereo unspecified), which Kd is on record?
The Kd was > 4 mM (inactive).

Which Kd does the source give for `OCCCc1nc2ccccc2[nH]1` here?
The Kd was > 4 mM (inactive).

How did the Kd turn out when `NCCCCNCCCN` was run?
The Kd was > 4 mM (inactive).

How did the Kd turn out when `Nc1cccc(-n2cccc2)c1` was run?
The Kd was > 4 mM (inactive).

`O=S(=O)(Cc1ccccc1Cl)Nc1ccccn1` was tested. Which Kd did it give?
The Kd was > 4 mM (inactive).

Which Kd does the source give for `CC(NC(=O)c1ccco1)C1CCCO1` (stereo unspecified) here?
The Kd was > 4 mM (inactive).

`CN1CCN(c2ccc(C(=O)O)cc2)CC1` was tested. Which Kd did it give?
Its Kd is > 4 mM (inactive).

With `CC(=O)c1ccc(CC2SC(N)=NC2=O)cc1` (stereo unspecified) as the molecule, how does the Kd read?
The Kd was > 4 mM (inactive).

With `CC(=O)c1c(C)nc(C)nc1NC(=O)C(C)C` as the molecule, how does the Kd read?
The Kd was > 4 mM (inactive).

With `O=C1CCCc2c(O)cccc21` as the molecule, how does the Kd read?
The Kd was > 4 mM (inactive).

Which Kd does the source give for `CC(=O)OC/C=C(\C)CC/C=C(\C)CC/C=C(\C)CC/C=C(\C)CC/C=C(\C)CC/C=C(\C)CC/C=C(\C)CC/C=C(\C)CCC=C(C)C` here?
Its Kd is > 4 mM (inactive).

For `COC(=O)NNc1ncnc(N)c1[N+](=O)[O-]`, which Kd is on record?
Its Kd is > 4 mM (inactive).

For `Cc1c(F)cccc1NS(=O)(=O)c1ccccc1C#N`, which Kd is on record?
The Kd was > 4 mM (inactive).

`O=c1c(O)c(-c2ccccc2)oc2ccc3occc3c12` was tested. Which Kd did it give?
Its Kd is > 4 mM (inactive).

`O=C(Nc1ccccc1)Nc1ccccc1` was tested. Which Kd did it give?
The Kd was > 4 mM (inactive).

Which Kd does the source give for `NC(=O)C1CCN(c2nccc(C(F)(F)F)n2)CC1` here?
Its Kd is > 4 mM (inactive).

For `COc1cc(C(C)=O)ccc1OCC(O)Cn1ccnc1` (stereo unspecified), which Kd is on record?
The Kd was > 4 mM (inactive).

For `NC1=C([N+](=O)[O-])C(=O)c2ccccc21`, which Kd is on record?
Its Kd is > 4 mM (inactive).

With `CC(C)c1ccccc1NC(=O)c1cnccn1` as the molecule, how does the Kd read?
Its Kd is > 4 mM (inactive).

For `Cc1cc(NC(=O)c2ccc3c(c2)OCCO3)no1`, which Kd is on record?
The Kd was > 4 mM (inactive).

With `C[C@@H]1CC[C@]2(C(=O)O)CC[C@]3(C)C(=CCC4[C@@]5(C)CC[C@H](O)C(C)(C)C5CC[C@]43C)C2[C@H]1C` (stereo partly specified) as the molecule, how does the Kd read?
The Kd was > 4 mM (inactive).

For `O=C(NC(=S)NN1CCOCC1)c1cccs1`, which Kd is on record?
Its Kd is > 4 mM (inactive).

For `CCC(C)OC1CCS(=O)(=O)C1` (stereo unspecified), which Kd is on record?
The Kd was > 4 mM (inactive).

With `O=C(Nc1cccc(O)c1)c1ccccc1` as the molecule, how does the Kd read?
The Kd was > 4 mM (inactive).

For `NC(=O)c1ccc(N2C(=O)CCC2=O)cc1Cl`, which Kd is on record?
Its Kd is > 4 mM (inactive).

How did the Kd turn out when `CNC(=O)c1cc(S(=O)(=O)N(C)C)ccc1Cl` was run?
Its Kd is > 4 mM (inactive).

How did the Kd turn out when `c1n[nH]cc1-c1cn[nH]c1` was run?
The Kd was > 4 mM (inactive).

How did the Kd turn out when `Cc1nn(-c2ccccc2)nc1CO` was run?
The Kd was > 4 mM (inactive).

`O=C1CC(=O)N(Cc2ccco2)C(=S)N1` was tested. Which Kd did it give?
The Kd was > 4 mM (inactive).

With `Fc1ccc2onc(C3CCNCC3)c2c1` as the molecule, how does the Kd read?
Its Kd is > 4 mM (inactive).

`O=c1/c(=C/c2ccccc2F)sc2ncnn12` was tested. Which Kd did it give?
The Kd was > 4 mM (inactive).

How did the Kd turn out when `Cc1sc2nc(SCC(=O)N(C)C)[nH]c(=O)c2c1C` was run?
Its Kd is > 4 mM (inactive).

For `Cc1nnsc1C(=O)Nc1ccc(C(N)=O)cc1`, which Kd is on record?
Its Kd is > 4 mM (inactive).

With `NC1=NC(=O)/C(=C/c2cccc([N+](=O)[O-])c2)S1` as the molecule, how does the Kd read?
Its Kd is > 4 mM (inactive).

Which Kd does the source give for `O=C(O)c1ccc(-c2cccs2)cc1` here?
The Kd was > 4 mM (inactive).

How did the Kd turn out when `OCCNc1ccccn1` was run?
The Kd was > 4 mM (inactive).

With `O=C(Nc1cccnc1)Nc1ccc2c(c1)OCO2` as the molecule, how does the Kd read?
The Kd was > 4 mM (inactive).

Which Kd does the source give for `CC(=O)O[C@@H]1CC2C(C)(CC[C@H](O)C2(C)C)C2CC[C@]3(C)C(=CC(=O)O[C@H]3c3ccoc3)C21C` (stereo partly specified) here?
The Kd was > 4 mM (inactive).

With `NC(C(=O)O)C(O)C(=O)O` (stereo unspecified) as the molecule, how does the Kd read?
The Kd was > 4 mM (inactive).

For `CC(=O)O[C@H]1C[C@@]2(C)[C@@H](C[C@@H](O)C3[C@]2(C)CC[C@H]2[C@H](C)[C@H](O)CC[C@]32C)/C1=C(/CCC=C(C)C)C(=O)O` (stereo partly specified), which Kd is on record?
The Kd was > 4 mM (inactive).

Which Kd does the source give for `Cc1ccc(C(=O)N2CCOCC2)cc1Cl` here?
The Kd was > 4 mM (inactive).

`CC(=O)O[C@H]1CC[C@@]2(C)C(CC[C@]3(C)C2CC=C2C4CC(C)(C)CC[C@]4(C)CC[C@]23C)C1(C)C` (stereo partly specified) was tested. Which Kd did it give?
The Kd was > 4 mM (inactive).

With `Nc1nc(-c2ccc(O)cc2)cs1` as the molecule, how does the Kd read?
The Kd was > 4 mM (inactive).

How did the Kd turn out when `Cn1cnc2cc(NC(=O)c3ccco3)ccc21` was run?
Its Kd is > 4 mM (inactive).

Which Kd does the source give for `CC(C)=CC(=O)Nc1ccc2c(c1)OCO2` here?
The Kd was > 4 mM (inactive).

For `NC1=NC(=O)/C(=C/c2ccc(O)c(Cl)c2)S1`, which Kd is on record?
The Kd was > 4 mM (inactive).

With `O=C(O)C1NCCc2ccccc21` (stereo unspecified) as the molecule, how does the Kd read?
The Kd was > 4 mM (inactive).

How did the Kd turn out when `C=C1C(=O)O[C@@H]2C3OC3(C)CC/C=C(\C)CC[C@@H]12` (stereo partly specified) was run?
Its Kd is > 4 mM (inactive).

`CCCc1ncc(C(O)c2cccc3ccccc23)n1C` (stereo unspecified) was tested. Which Kd did it give?
The Kd was > 4 mM (inactive).

For `NCc1csc(-c2cccs2)n1`, which Kd is on record?
Its Kd is > 4 mM (inactive).

How did the Kd turn out when `Cc1cc(C(F)(F)F)n2nc(C(=O)O)c(Cl)c2n1` was run?
Its Kd is > 4 mM (inactive).

How did the Kd turn out when `Cc1ccccc1NC(=S)NCCO` was run?
Its Kd is > 4 mM (inactive).

With `O=c1[nH]cc(N2CCCCC2)c(=O)[nH]1` as the molecule, how does the Kd read?
The Kd was > 4 mM (inactive).

`CCOC(=O)c1c(C)cc(O)c(C)c1O` was tested. Which Kd did it give?
Its Kd is > 4 mM (inactive).

With `O=C(NN1CCOCC1)c1cccs1` as the molecule, how does the Kd read?
The Kd was > 4 mM (inactive).

`Cc1cc(-c2ccc(Cl)cc2)n2nc(N)nc2n1` was tested. Which Kd did it give?
Its Kd is > 4 mM (inactive).

With `O=S1(=O)CCC(NCCO)C1` (stereo unspecified) as the molecule, how does the Kd read?
Its Kd is > 4 mM (inactive).

With `c1ccc(C[N+]23CCN(CC2)c2ccccc23)cc1` as the molecule, how does the Kd read?
The Kd was > 4 mM (inactive).

`COc1cc2occc2c2oc(=O)ccc12` was tested. Which Kd did it give?
The Kd was > 4 mM (inactive).

`Cc1nc(-c2ccccc2)sc1CN` was tested. Which Kd did it give?
The Kd was > 4 mM (inactive).
